Source: patent publication US20250034264A1, “REGULATING T CELL IMMUNE RESPONSE THROUGH IGF-I RECEPTOR (IGF-1R)” (The Regents of the University of Michigan, priority 2021, published 2025)

Experiments:
Assay type in all cases: cell-based, human
CD34+ fibrocytes = assay: MHC II, CD80, CD86, PD-L1 expression in cultured fibrocytes (RT-qPCR, flow cytometry)
Source text: Fibrocyte and T cell isolation and cultivation. Peripheral blood mononuclear cells (PBMCs) were obtained from the venous circulation of clinic patients with GD, TAO or from healthy donors after obtaining informed consent. PBMCs were also obtained from Red Cross donor plasmapheresis filters. They were isolated by Ficoll-Histopaque (Sigma-Aldrich, St. Louis, MO) density gradient centrifugation. Fibrocytes were cultivated as described (Bucala, R, et al., (1994) Mol Med 1, 71-81, incorporated herein by reference in its entirety) except that culture substrata remained uncoated with fibronectin, as previously described (Douglas, R. S., et al. (2010) The Journal of clinical endocrinology and metabolism 95, 430-438). Isolated PBMCs (1×10^6-1×107) were inoculated in six-well plates covered with DMEM containing 10% FBS and incubated in 10-14 days. Adherent monolayers (<5% of the starting population) were washed with PBS and detached using accutase (Millipore) treatment, or mechanical scraping following accutase treatment. Culture purity was routinely confirmed by FACS analysis to be >90% fibrocytes by confirming the CD31^−CD45^+CD34^+CXCR4^+Col I^+TSFR^high phenotype.
Invariably, a small population of tightly adherent T cells were found in the fibrocyte cultures, consistent with the previous findings. Culture viability was routinely verified to be >90%. CD4^+ T cells were enriched using the CD4 isolation cocktail (Cat #0.130-096-533, Miltenyi Biotec, San Diego, CA) followed by negative selection using a magnetic column (Cat #0.130-042-401) according to manufacturer's protocol. Fibrocytes and isolated T cells were cultured and remained untreated or were incubated with human IgG isotype control (5 μg/ml) or teprotumumab (50 μg/mL) for 7 to 9 days. Single cell suspensions were stained with anti-human CD4, CD3, CD34, MHC-2, CD80, CD86, and PD-L1 (BD Biosciences) for 30 min, rinsed and fixed with CytoPerm/CytoFix (BD). They were then stained with anti-human INFγ and IL-17A for 20 min, rinsed, and subjected to the flow cytometry analysis. Gated CD34^+CXCR4^+ fibrocytes and CD4^+CD3^+ T cells were analyzed using quadrant settings based on negative isotype staining.
In vitro studies of CD34^+ fibrocytes and T cells PBMC and GD-OF monolayers were treated in vitro with human IgG isotype control (5 μg/ml), teprotumumab (50 μg/mL), H7 (5 μg/mL), linsitinib (1 μM), bTSH (5 mIU/mL), M22 (1 μg/mL), or IGF-1 (10 nM) for the intervals indicted in the figure legends in a 37° C., 5% CO2, humidified incubator until confluent. Brefeldin A (0.66 μl/ml), (Golgi Stop™, BD Biosciences), phorbol 12-myristate 13-acetate (PMA) (50 ng/ml) and ionomycin (1 μg/mL) were added for 5 h. Cells were rinsed with flow cytometry buffer (1×PBS, 0.5% BSA, 0.1% sodium azide) and stained with the relevant monoclonal antibodies.
(§1) Real-time PCR Confluent fibrocyte and GD-OF cultures were incubated with bTSH (5 mIU/mL), teprotumumab (50 μg/mL) or linsitinib (1 μM) for the time intervals indicated, washed with PBS and RNA was extracted with the Aurum Total RNA Mini Kit (cat. #732-6820, Bio-Rad, Hercules, CA). Cellular RNA (2 μg) was reverse transcribed using QuantiTect Reverse Transcription kit (cat. #205314, Qiagen (Germantown, MD) and real-time PCR was performed using an Applied Biosystems instrument with QuantiTect SYBR Green PCR kit (cat. no. 204143; Qiagen, Frederick, MD). Primer sequences were as follows.

GD-OF [1] = assay: IL-23p19 and IL-12p35 mRNA expression, real-time PCR; details: teprotumumab 50 μg/ml or linsitinib 1 μM, 7-9 d
Method: (§2) FIGS. 10A-10F are graphs showing the divergent effect of teprotumumab on bTSH induced IL-23p19 and IL-12p35 expression on fibrocytes and GD-OF. Rinsed fibrocyte and GD-OF monolayers were incubated with or without 50 μg/ml teprotumumab (FIGS. 10A and 10B) or 1 μM linsitinib (FIGS. 10C and 10D) and human Isotype IgG for 7-9 d, and bTSH (5 mIU/mL) was added for 6 h. Harvested RNA was reverse transcribed and isolated cDNA was subjected to quantitative real-time PCR for IL-23p19 and IL-12p35 mRNA levels. Values were normalized to their respective GAPDH levels and are expressed as the mean±SD of three independent determinations. Experiments were repeated three times. FIGS. 10E and 10F are graphs showing the levels of IL-23 protein when rinsed fibrocyte and GD-OF monolayers were incubated with or without 50 μg/ml teprotumumab. **, p<0.01; ***. P<0.001.
FIGS. 15A-15C are dose-response curves of teprotumumab effects on IL-6 expression/induction by bTSH (FIG. 15A); HAS2 expression/induction by bTSH (FIG. 15B); IL-12p35 expression/induction by bTSH (FIG. 15C). Following indicated treatments, cellular RNA was harvest from rinsed GD-OF cell layers, reversed transcribed and subjected to real-time PCR. Values were normalized to their respective GAPDH levels.
Graves' disease-orbital fibroblast (GD-OF) preparation and cultivtion GD-OF were isolated from orbital adipose/connective tissues removed during surgical orbital decompression surgery, as described ((Smith, T. J., et al., (2002) The Journal of clinical endocrinology and metabolism 87, 385-392). While the fraction of CD34^+ OF comprising GD-OF strains vary somewhat, the ratios of CD34^+/CD34^− OF are usually 50:50 in the early passages utilized in these studies (passages 2-11). Pure CD34^+ OF and CD34^− OF subsets were generated by staining for 30 m at 4° C. with fluorescein isothiocyanate-conjugated […] CD34 or its isotype control followed by cytometric cell sorting using a FACSAria III (BD Biosciences) instrument. Cells were sorted under sterile conditions into either CD34^+ OF, and CD34 OF subsets which were then re-cultured and treated without or with bTSH (5 mU/mL) or the other test compounds, as indicated, for 6 hrs, as indicated.
as §1

fibrocytes [2] = assay: as above; details: teprotumumab 50 μg/ml or linsitinib 1 μM, 7-9 d
Method: as §2, §1

fibrocytes [3] = assay: HAS1 and HAS2 mRNA, real-time PCR; details: teprotumumab 50 μg/ml or linsitinib 1 μM, 7-9 d
Method: (§3) FIGS. 13A-13B are graphs showing the effect of teprotumumab on bTSH induced hyaluronan (HA) production in GD-OF (FIG. 13A) and fibrocytes (FIG. 13B). GD-OF were treated with or without teprotumumab (50 μg/ml) or human Isotype IgG (5 μg/ml) for 7-9 d and stimulated with bTSH (5 mIU/mL) for graded intervals indicated along the abscissa for 0 to 96h. Media were collected and subjected to HA ELISA. Values were normalized to respective cell layer protein levels and expressed as the mean±SD of three independent determinations. Experiments were repeated three times. FIGS. 13C-13F are graphs showing the divergent pattern of hyaluronan synthase (HAS) isoenzyme induction by bTSH in fibrocytes versus GD-OF and effects of teprotumumab (FIGS. 13C and 13D) and linsitinib (FIGS. 13E and 13F). Confluent monolayers of GD-OF and fibrocytes remained untreated or received teprotumumab (50 μg/ml) or linsitinib (1 μM) and human Isotype IgG for 7-9 d. Some cultures were treated with bTSH (5 mIU/mL) for 6h. Cellular RNA was harvested mRNA was reverse transcribed, and cDNA subjected to quantitative real-time PCR for HAS1 and HAS2. Values were normalized to their respective GAPDH levels and are expressed as the mean±SD of three independent determinations. Experiments were repeated three times. *, P<0.05; **, p<0.01; ***. P<0.001.
as §1

GD-OF [4] = assay: HAS1 and HAS2 mRNA, real-time PCR; details: teprotumumab 50 μg/ml or linsitinib 1 μM, 7-9 d
Method: as §3, §1

rhIGF-1: Recombinant Human IGF-1 (R & D systems)
induction of MHC II, CD80, CD86, PD-L1 surface proteins by the agent itself (CD34+ fibrocytes; M22 1 μg/mL (peak at 6 d), IGF-1 10 nM, compared with bTSH): considerably less robust

COc1ccc(C2Nc3ccccc3C(=O)N2Cc2ccco2)cc1COc1c(C)cc(NC(C)=O)cc1C (stereo not drawn) [ML224]
effect on MHC II, CD80, CD86, PD-L1 expression, teprotumumab compared with TSHR inhibitor ML224 (CD34+ fibrocytes; 9 d, single agents and in combination): effective

C[C@]1(O)C[C@@H](c2nc(-c3ccc4ccc(-c5ccccc5)nc4c3)c3c(N)nccn32)C1 [linsitinib]
IL-12p35 expression, basal and induction by bTSH (GD-OF [1]): increasing
IL-23p19 expression, basal and induction by bTSH (GD-OF [1]): decreasing
IL-12p35 expression, basal and induction by bTSH (fibrocytes [2]): increasing
IL-23p19 expression, basal and induction by bTSH (fibrocytes [2]): decreasing
induction of MHC II, CD80, CD86, PD-L1 surface proteins (CD34+ fibrocytes; bTSH-treated fibrocytes): blocked
induction of MHC II, CD80, CD86, PD-L1 mRNA by bTSH and M22 (CD34+ fibrocytes; teprotumumab 50 μg/mL, 1H7 5 μg/mL, linsitinib 1 μM): blocked
HAS2 expression, single agent or in combination with bTSH (fibrocytes [3]): nearly identical
basal and bTSH-provoked expression of HAS1 (fibrocytes [3]): nearly identical
HAS2 expression, single agent or in combination with bTSH (GD-OF [4]): nearly identical
basal and bTSH-provoked expression of HAS1 (GD-OF [4]): nearly identical
